# Experiments:
# IDH1 R132H enzyme = IDH1 R132H enzyme (Homo sapiens (Human), UniProt O75874, R132H); experiment: Mutant IDH1 R132H biochemical assay; conditions: luminescent NADPH consumption readout; 1.5 nM enzyme, 1 μM NADPH, 250 μM α-KG, 30 min, 32° C.
# Method: Mutant IDH1 R132H Biochemical Assay
# mIDH1 catalyzes the NADPH-dependent reduction of alpha-ketoglutarate (α-KG) to (2R)-2-hydroxyglutarate (2-HG). NADPH consumption was measured by luminescent readout.
# The biochemical reactions were performed at 32° C. in 384-well plates using a reaction volume of 41 μL and the following assay buffer conditions: 50 mM Tris pH 7.5, 100 mM NaCl, 20 mM MgCl2, 0.05% BSA, 0.01% Brij, 1 μM NADPH, and 250 μM α-KG. The IDH1 R132H enzyme was used in a final concentration of 1.5 nM. Test compounds were used in a concentration range between 0.002 and 10 μM. The final DMSO concentration was 2.4%.
# The reaction was incubated for 30 minutes, then 40 μL of detection mix (0.75 μg/ml Luciferase, 0.02 U/ml Oxidoreductase, 4 μg/mL FMN, 2 μL/ml decanal/ethanol, 50 mM Tris pH 7.5, 0.5% Glycerin, 0.01% Tween-20, 0.05% BSA) was added. Luminescence was measured on a luminescent reader (10 seconds measuring time, 1 second integration period, 30% sensitivity). The decrease in luminescence is proportional to mIDH1 activity. IC50 values are determined by interpolation from plots of relative luminescence versus inhibitor concentration.
# [1] = tested on: LN229 R132H cells overexpressing mutated isocitrate dehydrogenase (mIDH); experiment: Mutant IDH1 cellular assay (2-HG in medium); type: cell-based; conditions: 2-HG in medium after 24 hours, fluorescence readout
# Method: Mutant IDH1 Cellular Assay
# Levels of (2R)-2-hydroxyglutarate (2HG) were measured in medium of a cell line with overexpression of mutated isocitrate dehydrogenase (mIDH) protein. mIDH catalyzes the NADPH-dependent reduction of alpha-ketoglutarate to 2-HG. Cells (LN229 R132H, Mohrenz et al., Apoptosis (2013) 18:1416-1425) were grown in DMEM containing 10% FCS. They were harvested by trypsin and seeded into 96-well plates. Cells were incubated overnight at 37° C. in 5% CO2. The next day test compounds were added to each cell well. The final concentration of DMSO was 0.1% and DMSO controls were included. The plates were then placed in an incubator for 24 hours.
# 2-HG was measured according to Balss et al. (Acta Neuropathol (2012) 124: 883-891). Briefly, perchloric acid was added to each well and the plates were centrifuged. Aliquots are removed and incubated with hydroxyglutarate dehydrogenase (HGDH), diaphorase, NAD+, and resazurin. The conversion of resazurin to resorufin was detected by fluorescence spectroscopy at Ex 540 nm Em 600 nm. The increase in fluorescence is proportional to 2-HG production. IC50 values are determined by interpolation from plots of relative fluorescence vs inhibitor concentration.
# IDH1 R132H enzyme, sequence (O75874 whole entry R132H): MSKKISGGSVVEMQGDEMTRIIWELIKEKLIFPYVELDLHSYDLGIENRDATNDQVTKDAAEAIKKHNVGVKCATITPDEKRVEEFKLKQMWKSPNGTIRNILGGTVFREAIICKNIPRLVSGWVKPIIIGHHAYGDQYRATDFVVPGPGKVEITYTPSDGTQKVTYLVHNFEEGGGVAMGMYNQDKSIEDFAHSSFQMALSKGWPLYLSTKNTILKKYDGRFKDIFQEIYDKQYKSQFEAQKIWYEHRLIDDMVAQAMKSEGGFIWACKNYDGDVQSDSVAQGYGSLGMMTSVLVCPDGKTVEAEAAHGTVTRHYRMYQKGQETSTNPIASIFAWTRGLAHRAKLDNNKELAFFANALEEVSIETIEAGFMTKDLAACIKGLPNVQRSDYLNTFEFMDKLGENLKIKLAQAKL
SMILES,IC50 (IDH1 R132H enzyme),"IC50 ([1]; Homo sapiens, LN-229, 24 h)",IC50 [1]
"C[C@@H]1C[C@H](n2c(Nc3ccc(OC(F)(F)F)cc3)nc3cc(C(C)(C)O)ccc32)CC(C)(C)C1 (single isomer, unassigned; enantiomer b) [Example 2-2-2, 2-(2-{[4-(trifluoromethoxy)phenyl]amino}-1-[(cis)-3,3,5-trimethylcyclohexyl]-1H-benzimidazol-5-yl)propan-2-ol, enantiomer B]",40 nM,500 nM,
"Cc1cc2c(cc1[C@@H](O)C(F)(F)F)nc(Nc1ccc(OC(F)(F)F)cc1)n2C1CC(C)(C)CC(C)(C)C1 (racemic) [Example 2-5, (±) 2,2,2-trifluoro-1-[6-methyl-1-(3,3,5,5-tetramethylcyclohexyl)-2-{[4-(trifluoromethoxy)phenyl]amino}-1H-benzimidazol-5-yl]ethanol]",30 nM,800 nM,
"C[C@@H]1C[C@H](n2c(Nc3ccc(OC(F)(F)F)cc3)nc3cc(CO)ccc32)CC(C)(C)C1 (single isomer, unassigned; enantiomer a) [Example 2-1-1, (2-{[4-(trifluoromethoxy)phenyl]amino}-1-[(cis)-3,3,5-trimethylcyclohexyl]-1H-benzimidazol-5-yl)methanol, enantiomer A]",50 nM,1300 nM,
"COc1cc2c(cc1C(C)(C)O)nc(Nc1ccc(OC(F)(F)F)cc1)n2[C@H]1C[C@@H](C)CC(C)(C)C1 (single isomer, unassigned; enantiomer a) [Example 2-7-1, 2-(6-methoxy-2-{[4-(trifluoromethoxy)phenyl]amino}-1-[(cis)-3,3,5-trimethylcyclohexyl]-1H-benzimidazol-5-yl)propan-2-ol, enantiomer A]",50 nM,,480 nM
"Cc1cc2c(cc1C(C)(C)O)nc(Nc1ccc(OC(F)(F)F)cc1)n2C1CC(C)(C)CC(C)(C)C1 [Example 2-4, 2-[6-methyl-1-(3,3,5,5-tetramethylcyclohexyl)-2-{[4-(trifluoromethoxy)phenyl]amino}-1H-benzimidazol-5-yl]propan-2-ol]",30 nM,550 nM,
"C[C@@H]1C[C@H](n2c(Nc3ccc(OC(F)(F)F)cc3)nc3cc(CO)ccc32)CC(C)(C)C1 (single isomer, unassigned; enantiomer b) [Example 2-1-2, (2-{[4-(trifluoromethoxy)phenyl]amino}-1-[(cis)-3,3,5-trimethylcyclohexyl]-1H-benzimidazol-5-yl)methanol, enantiomer B]",70 nM,,
"C[C@@H]1C[C@H](n2c(Nc3ccc(OC(F)(F)F)cc3)nc3cc(CCC(C)(C)O)ccc32)CC(C)(C)C1 (single isomer, unassigned; enantiomer a) [Example 2-11-1, 2-methyl-4-(2-{[4-(trifluoromethoxy)phenyl]amino}-1-[(cis)-3,3,5-trimethylcyclohexyl]-1H-benzimidazol-5-yl)butan-2-ol, enantiomer A]",210 nM,,
"Cc1cc2c(cc1CC(C)(C)O)nc(Nc1ccc(OC(F)(F)F)cc1)n2[C@H]1C[C@@H](C)CC(C)(C)C1 (racemic) [Example 2-8, (±) 2-methyl-1-(6-methyl-2-{[4-(trifluoromethoxy)phenyl]amino}-1-[(cis)-3,3,5-trimethylcyclohexyl]-1H-benzimidazol-5-yl)propan-2-ol]",30 nM,,
"COc1cc2c(cc1CC(C)(C)O)nc(Nc1ccc(OC(F)(F)F)cc1)n2[C@H]1C[C@@H](C)CC(C)(C)C1 (single isomer, unassigned; enantiomer b) [Example 2-9-2, 1-(6-methoxy-2-{[4-(trifluoromethoxy)phenyl]amino}-1-[(cis)-3,3,5-trimethylcyclohexyl]-1H-benzimidazol-5-yl)-2-methylpropan-2-ol, enantiomer B]",10 nM,,
"CC(C)Oc1ccc(Nc2nc3cc(CC(C)(C)O)ccc3n2[C@@H]2C[C@H](C)CC[C@H]2C(C)C)cc1 [Example 2-17, 1-{2-[(4-isopropoxyphenyl)amino]-1-[(1R,2S,5R)-2-isopropyl-5-methylcyclohexyl]-1H-benz-imidazol-5-yl}-2-methylpropan-2-ol]",160 nM,,
